These are literature values, as cited in article PMC4221044, “Antimicrobial GL13K Peptide Coatings Killed and Ruptured the Wall of Streptococcus gordonii and Prevented Formation and Growth of Biofilms” (PLoS ONE, 2014).

By MIC is commonly meant the smallest concentration in the dilution series that meets the test's criterion for growth inhibition.

The subject of one series is Streptococcus gordonii. The note with it: 100 µg/ml GL13K. The text has this:
(§1) Functionalization of titanium surfaces with coatings made of antimicrobial agents has recently been explored to inhibit peri-implant infections. The coatings can contain nanoparticles of pure elements, [5]; sanitizing agents and disinfectants; and antibiotics as well as antimicrobial peptides. Gentamicin [7]–[9] and Vancomycin [10]–[13] have been coated on Ti surfaces for protecting from infection dental and orthopedic implants.

Series [1] relates to Pseudonomas aeruginosa biofilms. The note with it: 100 µg/ml GL13K.
Text: as §1

In series [2] the test system is planktonic Pseudonomas aeruginosa. As to conditions: peptide in solution.
Text: as §1

For the substance “GKIIKLKASLKLL-NH2 [GL13K, antimicrobial peptide …-NH2 derived from the human salivary protein BPIFA2]”, the bacteria killed with Streptococcus gordonii was 100%. Moreover, the reduction of biofilms result in series [1] is reported as “three orders of magnitude”. Moreover, in series [2], the MIC is 8 µg/mL.
